Source: patent publication EP0672658B1, “Antithrombotic agents” (priority 1994, dated 1995)
Structures can show the parent of a compound that is named as a salt. Where two headings read alike, the source gives them in different places.

How the values were obtained:
factor Xa = factor Xa (Homo sapiens, UniProt P00742); assay: biochemical
Experimental: (§1) By substantially following the procedures described above for human thrombin, and using other human blood coagulation system serine proteases and proteases of the fibrinolytic system with the appropriate chromogenic substrates, identified below, selectivity of the compounds of the present invention with respect to the coagulation factor serine proteases and with respect to the fibrinolytic system serine proteases are evaluated as well as their substantial lack of interference with serine proteases of the fibrinolytic system. Thrombin inhibitors preferably should spare fibrinolysis induced by urokinase, tissue plasminogen activator (t-PA) and streptokinase. This would be important to the therapeutic use of such agents as an adjunct to streptokinase, t-PA or urokinase thrombolytic therapy and to the use of such agents as an endogenous fibrinolysis-sparing (with respect to t-PA and urokinase) antithrombotic agent. In addition to the lack of interference with the amidase activity of the fibrinolytic proteases, such fibrinolytic system sparing can be studied by the use of human plasma clots and their lysis by the respective fibrinolytic plasminogen activators.
(§2) Human factors X, Xa, IXa, XIa, and XIIa are purchased from Enzyme Research Laboratories, South Bend, Indiana; human urokinase from Leo Pharmaceuticals, Denmark; and recombinant activated Protein C (aPC) is prepared at Eli Lilly and Co. substantially according to U.S. Patent 4,981,952. Chromogenic substrates: N-Benzoyl-Ile-Glu-Gly-Arg-p-nitroanilide (for factor Xa); N-Cbz-D-Arg-Gly-Arg-p-nitroanilide (for factor IXa assay as the factor Xa substrate); Pyroglutamyl-Pro-Arg-p-nitroanilide (for Factor XIa and for aPC); H-D-Pro-Phe-Arg-p-nitroanilide (for factor XIIa); and Pyroglutamyl-Gly-Arg-p-nitroanilide (for urokinase); are purchased from KabiVitrum, Stockholm, Sweden, or from Midwest Biotech, Fishers, Indiana. Bovine trypsin is purchased from Worthington Biochemicals, Freehold, New Jersey, and human plasma kallikrein from Kabi Vitrum, Stockholm, Sweden. Chromogenic substrate H-D-Pro-Phe-Arg-p-nitroanilide for plasma kallikrein is purchased from Kabi Vitrum, Stockholm, Sweden. N-Benzoyl-Phe-Val-Arg-p-nitroanilide, the substrate for human thrombin and for trypsin, is synthesized according to procedures described above for the compounds of the present invention, using known methods of peptide coupling from commercially available reactants or purchased from Midwest Biotech, Fishers, Indiana.

Trypsin = biological target: T1, Trypsin (Bos taurus, UniProt P00760); assay: biochemical; set-up: species or system Bovine
T1 sequence (P00760 24-246): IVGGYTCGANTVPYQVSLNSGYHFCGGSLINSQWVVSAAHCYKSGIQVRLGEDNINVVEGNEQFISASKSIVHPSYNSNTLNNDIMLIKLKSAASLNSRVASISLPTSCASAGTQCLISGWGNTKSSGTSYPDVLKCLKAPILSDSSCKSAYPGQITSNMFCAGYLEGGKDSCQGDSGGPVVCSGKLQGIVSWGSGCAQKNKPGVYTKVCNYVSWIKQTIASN
Experimental: as §1, §2

Plasmin = biological target: T2, Plasmin (Homo sapiens, UniProt P00747); assay: biochemical
T2 construct: Human plasmin is purchased; purchased Boehringer Mannheim, Indianapolis, Indiana
Experimental: as §1
(§3) Human plasmin is purchased from Boehringer Mannheim, Indianapolis, Indiana; nt-PA is purchased as single chain activity reference from American Diagnostica, Greenwich, Connecticut; modified-t-PA6 (mt-PA6) is prepared at Eli Lilly and Company by procedure known in the art (See, Burck, et al., J. Biol. Chem., 265, […] (1990). Plasmin chromogenic substrate H-D-Val-Leu-Lys-p-nitroanilide and tissue plasminogen activator (t-PA) substrate H-D-Ile-Pro-Arg-p-nitroanilide are purchased from Kabi Vitrum, Stockholm, Sweden.

t-PA = t-PA (Homo sapiens, UniProt P00750); assay: biochemical
Experimental: as §1, §3

human or animal plasma [1] = assay: Anticoagulation determination in plasma: thrombin time (TT); type: biochemical; conditions: concentration doubling thrombin time
Experimental: (§4) Dog plasma and rat plasma is obtained from conscious mixed-breed hounds (either sex, Hazelton-LRE, Kalamazoo, Michigan, U.S.A.) or from anesthetized male Sprague-Dawley rats (Harlan Sprague-Dawley, Inc., Indianapolis, Indiana, U.S.A.) by venipuncture into 3.8 percent citrate. Fibrinogen is prepared from in-date ACD human blood as the fraction I-2 according to previous procedures and specifications. Smith, Biochem. J., 185, 1-11 (1980); and Smith, et al., Biochemistry, 11, 2958-2967 (1972). Human fibrinogen is also purchased as 98 percent pure/plasmin free from American Diagnostica, Greenwich, Connecticut. Coagulation reagents ACTIN, Thromboplastin, and Human plasma are from Baxter Healthcare Corp., Dade Division, Miami, Florida. Bovine thrombin from Parke-Davis (Ann Detroit, Michigan) is used for coagulation assays in plasma.
(§5) Coagulation assay procedures are as previously described. Smith, et al., Thrombosis Research, 50, 163-174 (1988). A CoAScreener coagulation instrument (American LABor, Inc.) is used for all coagulation assay measurements. The prothrombin time (PT) is measured by adding 0.05 mL saline and 0.05 mL Thromboplastin-C reagent to 0.05 mL test plasma. The activated partial thromboplastin time (APTT) is measured by incubation of 0.05 mL test plasma with 0.05 mL Actin reagent for 120 seconds followed by 0.05 mL CaCl2 (0.02 M). The thrombin time (TT) is measured by adding 0.05 mL saline and 0.05 mL thrombin (10 NIH units/mL) to 0.05 mL test plasma. The compounds of Formula I are added to human or animal plasma over a wide range of concentrations to determine prolongation effects on the APTT, PT, and TT assays. Linear extrapolations are performed to estimate the concentrations required to double the clotting time for each assay.

human or animal plasma [2] = assay: Anticoagulation determination in plasma: activated partial thromboplastin time (APTT); type: biochemical; conditions: concentration doubling activated partial thromboplastin time
Experimental: as §4, §5

Human Thrombin = Human Thrombin (Homo sapiens, UniProt P00734); assay: biochemical; conditions: read-out: Kass Human Thrombin (converted)
human or animal plasma [3] = assay: Anticoagulation determination in plasma: prothrombin time (PT); type: biochemical; conditions: concentration doubling prothrombin time
Experimental: as §4, §5

[4] = read-out: Kass Trypsin (converted)
[5] = read-out: Kass Plasmin (converted)

Chain of factor Xa (P00742 235-488 limits assumed): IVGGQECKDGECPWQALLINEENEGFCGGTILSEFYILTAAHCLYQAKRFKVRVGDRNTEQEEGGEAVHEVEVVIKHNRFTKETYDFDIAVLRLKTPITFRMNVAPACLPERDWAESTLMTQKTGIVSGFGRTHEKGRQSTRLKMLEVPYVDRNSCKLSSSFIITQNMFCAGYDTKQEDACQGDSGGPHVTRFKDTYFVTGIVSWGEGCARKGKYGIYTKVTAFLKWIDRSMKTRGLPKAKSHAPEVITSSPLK
Chain of factor Xa (P00742 41-179 partner limits assumed): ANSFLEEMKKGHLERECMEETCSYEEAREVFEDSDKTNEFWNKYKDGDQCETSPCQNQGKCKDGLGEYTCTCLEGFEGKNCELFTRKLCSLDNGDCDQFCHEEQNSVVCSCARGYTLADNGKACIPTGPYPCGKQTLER
T2 sequence (P00747 581-810 limits assumed): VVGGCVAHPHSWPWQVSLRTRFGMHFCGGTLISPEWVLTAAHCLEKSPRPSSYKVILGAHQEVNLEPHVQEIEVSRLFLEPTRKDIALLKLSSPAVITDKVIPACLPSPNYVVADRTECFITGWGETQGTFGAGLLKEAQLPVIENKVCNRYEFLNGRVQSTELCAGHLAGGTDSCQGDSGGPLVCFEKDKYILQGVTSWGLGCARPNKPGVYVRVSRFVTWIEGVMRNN
T2 sequence (P00747 97-580 partner limits assumed): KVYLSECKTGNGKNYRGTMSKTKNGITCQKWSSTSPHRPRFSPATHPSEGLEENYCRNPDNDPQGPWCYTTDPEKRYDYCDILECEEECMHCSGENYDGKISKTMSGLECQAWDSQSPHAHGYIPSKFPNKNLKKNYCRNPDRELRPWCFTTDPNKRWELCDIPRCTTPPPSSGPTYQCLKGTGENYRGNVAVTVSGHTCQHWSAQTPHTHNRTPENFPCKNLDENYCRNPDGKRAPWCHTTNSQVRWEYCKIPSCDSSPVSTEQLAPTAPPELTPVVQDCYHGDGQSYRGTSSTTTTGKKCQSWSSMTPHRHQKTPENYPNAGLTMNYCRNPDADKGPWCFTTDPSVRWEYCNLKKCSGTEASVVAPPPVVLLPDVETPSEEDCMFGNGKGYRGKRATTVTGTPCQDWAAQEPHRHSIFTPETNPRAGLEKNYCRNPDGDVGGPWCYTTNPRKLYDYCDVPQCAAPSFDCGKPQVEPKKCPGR
Chain of t-PA (P00750 36-562): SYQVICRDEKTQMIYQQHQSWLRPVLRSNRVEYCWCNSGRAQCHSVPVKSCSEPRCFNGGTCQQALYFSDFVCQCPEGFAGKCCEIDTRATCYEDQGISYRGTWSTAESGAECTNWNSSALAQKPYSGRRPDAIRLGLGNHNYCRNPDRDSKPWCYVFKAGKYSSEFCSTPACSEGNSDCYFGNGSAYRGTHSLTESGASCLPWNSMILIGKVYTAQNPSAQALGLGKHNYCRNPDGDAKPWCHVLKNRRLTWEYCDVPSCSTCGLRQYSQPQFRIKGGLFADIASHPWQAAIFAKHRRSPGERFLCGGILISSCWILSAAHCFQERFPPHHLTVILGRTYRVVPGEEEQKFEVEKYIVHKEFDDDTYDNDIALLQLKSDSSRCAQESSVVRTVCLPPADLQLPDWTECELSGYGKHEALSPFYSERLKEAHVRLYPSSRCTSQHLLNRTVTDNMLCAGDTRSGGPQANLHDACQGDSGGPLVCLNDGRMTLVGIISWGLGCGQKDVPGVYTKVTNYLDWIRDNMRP

Kd (factor Xa; read-out: Kass Xa (converted)) [µM] | Kd (Trypsin; [4]) [µM] | Kd (Human Thrombin) [µM] | Kd (Plasmin; [5]) [µM] | Compound | Kd (factor Xa) [µM] | Kd (Trypsin) [µM] | Kd (Plasmin) [µM] | Kd (t-PA) [µM] | Human Plasma Anticoagulation 2x Clotting time (ng/mL) TT (human or animal plasma [1]) | Human Plasma Anticoagulation 2x Clotting time (ng/mL) APTT (human or animal plasma [2]) | Human Plasma Anticoagulation 2x Clotting time (ng/mL) PT (human or animal plasma [3])
– | – | – | – | N=C(N)c1ccc(CNC(=O)[C@@H]2CCCN2C(=O)[C@H](N)Cc2ccccc2)cc1 [Example 15, hydrochloride] | 143 | 0.385 | 58.8 | 250 | 9 ng/mL | – | –
> 1000 | 14.3 | 0.909 | > 1000 | N=C(N)Nc1ccc(CNC(=O)[C@@H]2CCCN2C(=O)[C@@H]2NCC[C@@H]3CCCC[C@@H]32)cc1 [Example 38, D-1-Piq-Pro-p-NHCH2C6H4NHC(NH)NH2·2HCl] | – | – | – | – | 540 ng/mL | 6,100 ng/mL | 11,100 ng/mL
> 1000 | > 50 | 8.33 | > 1000 | N=C(N)Nc1ccc(CCNC(=O)[C@@H]2CCCN2C(=O)[C@@H]2NCC[C@@H]3CCCC[C@@H]32)cc1 [Example 39, D-1-Piq-Pro-p-NHCH2CH2C6H4NHC(NH)NH2·2HCl] | – | – | – | – | 5,300 ng/mL | 69,200 ng/mL | 78,600 ng/mL
> 1000 | 100 | 33.3 | > 1000 | N=C(N)Nc1cccc(CNC(=O)[C@@H]2CCCN2C(=O)[C@@H]2NCC[C@@H]3CCCC[C@@H]32)c1 [Example 40, D-1-Piq-Pro-m-NHCH2C6H4NHC(NH)NH2·2HCl] | – | – | – | – | 35,100 ng/mL | >91,000 ng/mL | >91,000 ng/mL
> 1000 | > 1000 | 100 | > 1000 | N=C(N)Nc1cccc(CCNC(=O)[C@@H]2CCCN2C(=O)[C@@H]2NCC[C@@H]3CCCC[C@@H]32)c1 [Example 41, D-1-Piq-Pro-m-NHCH2CH2C6H4NHC(NH)NH2·2HCl] | – | – | – | – | 82,200 ng/mL | >91,000 ng/mL | >91,000 ng/mL
– | 33.3 | 0.417 | – | CCS(=O)(=O)N[C@H](CC1CCCCC1)C(=O)N1CCC[C@H]1C(=O)NCc1ccnc(N)c1 [Example 83, EtSO2-D-Cha-Pro-4-NHCH2-2-aminopyridine·HCl] | – | – | – | – | 91 ng/mL | 1,000 ng/mL | 1,300 ng/mL
– | 14.3 | 0.345 | – | CCS(=O)(=O)N[C@H](CC1CCCCC1)C(=O)N1CCC[C@H]1C(=O)NCc1ccc(N)nc1 [Example 84, EtSO2-D-Cha-Pro-5-NHCH2-2-aminopyridine·HCl] | – | – | – | – | 110 ng/mL | 1,500 ng/mL | 1,900 ng/mL
– | 0.0325 | 0.00377 | – | N=C(N)c1ccc(CNC(=O)[C@@H]2CCCN2C(=O)[C@@H](CC2CCCCC2)NCCCC(=O)O)cc1 [Example 85, HOOCCH2CH2CH2-D-Cha-Pro-p-NHCH2C6H4C(NH)NH2·HCl] | – | – | – | – | 4.9 ng/mL | 100 ng/mL | 197 ng/mL
1.59 | – | 0.005 | – | N=C(N)c1ccc(CNC(=O)[C@@H]2CCCN2C(=O)[C@H](NCC(=O)O)C2CCCCC2)cc1 [Example 86, HOOCCH2-D-Chg-Pro-p-NHCH2C6H4C(NH)NH2·HCl] | – | – | – | – | 4 ng/mL | 81 ng/mL | 180 ng/mL
0.4 | – | 0.0333 | – | N=C(N)c1ccc(CNC(=O)[C@@H]2CCCN2C(=O)[C@@H](CCc2ccccc2)NCC(=O)O)cc1 [Example 87, HOOCCH2-D-hPhe-Pro-p-NHCH2C6H4C(NH)NH2·HCl] | – | – | – | – | 9 ng/mL | 260 ng/mL | 310 ng/mL
0.256 | – | 0.00244 | – | N=C(N)c1ccc(CNC(=O)[C@@H]2CCCN2C(=O)[C@@H](CCC2CCCCC2)NCC(=O)O)cc1 [Example 88, HOOCCH2-D-hCha-Pro-p-NHCH2C6H4C(NH)NH2·HCl] | – | – | – | – | 4 ng/mL | 100 ng/mL | 200 ng/mL
14.1 | – | 7.14 | – | N=C(N)c1ccc(CNC(=O)CN(CCc2ccccc2)C(=O)CNCC(=O)O)cc1 [Example 89, HOOCCH2-Gly-N-C6H5CH2CH2Gly-p-NHCH2C6H4C(NH)NH2·HCl] | – | – | – | – | 570 ng/mL | 51,000 ng/mL | 37,000 ng/mL
500 | – | 1.64 | – | CCC(CC)C(=O)N[C@@H](CCC(=O)O)C(=O)N1CCC[C@H]1C(=O)NCc1ccc(C(=N)N)cc1 [Example 90, (C2H5)2CHCO-Glu-Pro-p-NHCH2C6H4C(NH)NH2·HCl] | – | – | – | – | 330 ng/mL | 14,500 ng/mL | 14,600 ng/mL
143 | – | 0.278 | – | CCC(CC)C(=O)N[C@@H](CCS(C)(=O)=O)C(=O)N1CCC[C@H]1C(=O)NCc1ccc(C(=N)N)cc1 [Example 91, (C2H5)2CHCO-Met(O2)-Pro-p-NHCH2C6H4C(NH)NH2·HCl] | – | – | – | – | 63 ng/mL | 3,000 ng/mL | 3,500 ng/mL
– | 0.13 | 0.00769 | – | CS(=O)(=O)CC(=O)N[C@H](CC1CCCCC1)C(=O)N1CCC[C@H]1C(=O)NCc1ccc(C(=N)N)cc1 [Example 92, MeSO2CH2CO-D-Cha-Pro-p-NHCH2C6H4C(NH)NH2·HCl] | – | – | – | – | 8.9 ng/mL | 210 ng/mL | 340 ng/mL
